The record followed here is US11716992B2, “5A5B6C tricyclic spirolactone derivative, preparation method therefor and use thereof” (NANKAI UNIVERSITY, priority 2017, dated 2023).

One series deals with Pellicularia sasakii. The experiment in a line: Fungicidal activity, fungicide growth rate method, PS. The class given is cell-based. The conditions noted are these: 50 μg/mL; for inhibition at 50 µg/mL: read-out: fungicidal activity (growth inhibition rate), PS.
Another series concerns wheat Gibberella zeae. The experiment in a line: microbe, parasite or virus in culture. The settings on record: for inhibition at 50 µg/mL: Fusarium graminearum, read-out: fungicidal activity (growth inhibition rate), GZ, 50 μg/mL. The class given is cell-based.
The test system of the next series is Alternaria solani. In words: Fungicidal activity, fungicide growth rate method, AS. The class given is cell-based. The settings on record: 50 μg/mL; for inhibition at 50 µg/mL: Alternaria solani, read-out: fungicidal activity (growth inhibition rate), AS.
Series [1] has as its system Helicoverpa armigera (Hübner). The experiment in a line: Insecticidal activity against Helicoverpa armigera (Hübner). The class given is in vivo. The conditions noted are these: Helicoverpa armigera; 100 μg/mL; read-out: insecticidal activity, Helicoverpa armigera (Hübner).
In series [2] the test system is Mythimna separate (Walker). The experiment in a line: Insecticidal activity against Mythimna separate (Walker). The class given is in vivo. The conditions noted are these: Mythimna, 100 μg/mL; read-out: insecticidal activity, Mythimna separate (Walker).
Series [3] concerns Phytophthora infestans (Mont.) de Bary. In words: microbe, parasite or virus in culture. Type of series: cell-based. The settings on record: Phytophthora infestans, read-out: fungicidal activity (growth inhibition rate), PI, 50 μg/mL.
For another series, the system named is Botrytis cinerea. In words: Fungicidal activity, fungicide growth rate method, BC. The conditions noted are these: 50 μg/mL; for inhibition at 50 µg/mL: Botrytis cinerea, read-out: fungicidal activity (growth inhibition rate), BC. The class given is cell-based.
The next series relates to Physalospora piricola. The experiment in a line: Fungicidal activity, fungicide growth rate method, PP. The class given is cell-based. The conditions noted are these: 50 μg/mL; for inhibition at 50 µg/mL: read-out: fungicidal activity (growth inhibition rate), PP.
The subject of the next series is Rhizoctonia cerealis. The experiment in a line: Fungicidal activity, fungicide growth rate method, RC. Type of series: cell-based. The settings on record: Ceratobasidium cereale, 50 μg/mL; read-out: fungicidal activity (growth inhibition rate), RC.
The next series has as its system Ostrinia furnacalis. The experiment in a line: Insecticidal activity against Ostrinia furnacalis. The class given is in vivo. The settings on record: Ostrinia furnacalis; 100 μg/mL; read-out: insecticidal activity, Ostrinia furnacalis.
In another series the test system is Caenorhabditis elegans. In words: Insecticidal activity against Caenorhabditis elegans. The class given is in vivo. The settings on record: 100 μg/mL; for pest or weed control at 100 µg/mL: Caenorhabditis elegans, read-out: insecticidal activity, Caenorhabditis elegans.
In the next series the test system is Cercospora arachidicola. In words: Fungicidal activity, fungicide growth rate method, CA. Type of series: cell-based. The settings on record: 50 μg/mL; for inhibition at 50 µg/mL: Mycosphaerella arachidis, read-out: fungicidal activity (growth inhibition rate), CA.
In the next series the test system is Tobacco Mosaic Virus. In words: Anti-TMV inactivation activity on tobacco plants. The conditions noted are these: compound mixed with TMV solution 30 minutes, lesions checked three days later. The class given is in vivo. More on the design: concentration or dose not given beside the values.
For a further series, the system named is Sclerotinia sclerotiorum. The experiment in a line: Fungicidal activity, fungicide growth rate method, SS. Type of series: cell-based. The conditions noted are these: 50 μg/mL; for inhibition at 50 µg/mL: Sclerotinia sclerotiorum.
The subject of series [4] is Apis mellifera ligustica Spin. The conditions noted are these: for Death number after 24 h / Death number after 48 h: per replicate of 10 bees.

Where “and” joins values, the source holds several entries; their conditions need not be identical. Equal values may be shown once. Read-outs that look alike come from different tables or passages of the source.

With `C=CC[C@@H]1C[C@]2(OC(C)=O)C[C@H](OC(C)=O)O[C@@]23CC=CC[C@H]13` [Zyj07-37-2], the inhibition at 50 µg/mL in the series with Pellicularia sasakii was 18%; with wheat Gibberella zeae, 3%; with Alternaria solani, 22%; in series [3] it was 21%; in the series with Botrytis cinerea it was 18%; with Physalospora piricola, 31%. For the same molecule, the values for the inhibition at 50 µg/mL with Rhizoctonia cerealis, in the series on Cercospora arachidicola and in the series on Sclerotinia sclerotiorum were 21%, 27% and over 50%, respectively. The pest or weed control at 100 µg/mL stood at 15% in [1], 20% in [2], 0% in the series on Ostrinia furnacalis and 13% in the series on Caenorhabditis elegans. In addition, in the series with Tobacco Mosaic Virus, the “TMV inactivation (anti-TMV activity)” value is recorded as 28%.
As to `C=CC[C@@H]1C[C@]2(O)C(C(=O)OCC)C(=O)O[C@@]23CC=CC[C@H]13` (stereo partly shown) [Zyj06-180], the inhibition at 50 µg/mL in the series with Pellicularia sasakii is 45%; in the series with wheat Gibberella zeae, 20%; in the series with Alternaria solani it was 14%; in series [3] it was 19%; in the series on Botrytis cinerea it was over 50%; in the series on Physalospora piricola it was 15%. The inhibition at 50 µg/mL with Rhizoctonia cerealis was 0%; in the series on Cercospora arachidicola it was 30%; with Sclerotinia sclerotiorum it was over 50%. In addition, the pest or weed control at 100 µg/mL came to 5% in series [1], 20% in series [2], 0% with Ostrinia furnacalis and 22% in the series on Caenorhabditis elegans. Further, the “TMV inactivation (anti-TMV activity)” value in the series with Tobacco Mosaic Virus is given as 5%. Also, in series [4] (dosage 10.6 μg a.i./bee), the “Death rate after 48 h (%)” value came out at 5.0%. In addition, the “Death number after 24 h” value in series [4] (dosage 10.6 μg a.i./bee) is 1 and 0. Further, the “Death number after 48 h” value in series [4] (dosage 10.6 μg a.i./bee) is 1 and 0.
On to `CCOC(=O)C(C(=O)OCC)C1CC(=O)[C@@]2(O)CC=CC[C@H]12` (stereo partly shown) [Zyj06-113-2], for which the inhibition at 50 µg/mL in the series on Pellicularia sasakii is 25%; with wheat Gibberella zeae it was 0%; with Alternaria solani, 3%; in [3], 40%; in the series on Botrytis cinerea, over 50%; in the series with Physalospora piricola it was 26%. Also, the inhibition at 50 µg/mL came out at 0% in the series with Rhizoctonia cerealis, 24% in the series with Cercospora arachidicola and 36% in the series on Sclerotinia sclerotiorum. In addition, the pest or weed control at 100 µg/mL was found to be 5% in [1], 20% in series [2], 15% in the series on Ostrinia furnacalis and 7% in the series with Caenorhabditis elegans. Also, in the series on Tobacco Mosaic Virus, the “TMV inactivation (anti-TMV activity)” value turned out to be 28%. For the same molecule, the “Death rate after 48 h (%)” value is reported as 10.0% in [4] (dosage 9.69 μg a.i./bee) and 15.0% in series [4] (dosage 12.6 μg a.i./bee). Moreover, the “Death number after 24 h” value in series [4] (dosage 9.69 μg a.i./bee) and in series [4] (dosage 12.6 μg a.i./bee) was 0 each time. Further, the “Death number after 48 h” value in series [4] (dosage 9.69 μg a.i./bee) is 0 and 2; in series [4] (dosage 12.6 μg a.i./bee), 1 and 2.
Consider `C=CC[C@@H]1C[C@]2(O)CCO[C@@]23C[C@H]2O[C@H]2C[C@H]13` [Zyj07-31-2], for which the inhibition at 50 µg/mL in the series with Pellicularia sasakii was 18%; with wheat Gibberella zeae, 3%; in the series with Alternaria solani, 22%; in [3] it was 21%; with Botrytis cinerea, 18%; in the series with Physalospora piricola it was 31%. Also, the inhibition at 50 µg/mL was 21% in the series with Rhizoctonia cerealis, 27% with Cercospora arachidicola and over 50% in the series with Sclerotinia sclerotiorum. Moreover, the pest or weed control at 100 µg/mL was 0% in series [1], over 30% in series [2], 0% with Ostrinia furnacalis and 8% with Caenorhabditis elegans. In the series with Tobacco Mosaic Virus, the “TMV inactivation (anti-TMV activity)” value is 15%. The figures for the “Death rate after 48 h (%)” value in [4] (dosage 6.51 μg a.i./bee) and in series [4] (dosage 9.36 μg a.i./bee) were 0% and 10.0%, respectively. The “Death number after 24 h” value in [4] (dosage 6.51 μg a.i./bee) and in series [4] (dosage 9.36 μg a.i./bee) was 0 in each case. Further, the “Death number after 48 h” value in series [4] (dosage 6.51 μg a.i./bee) is 0; in series [4] (dosage 9.36 μg a.i./bee) it was 1.
For `C=CC[C@@H]1C[C@]2(OC(C)=O)C[C@H](OC(C)=O)O[C@@]23C[C@H]2O[C@H]2C[C@H]13` [Zyj07-65-2], the inhibition at 50 µg/mL was 0% with Pellicularia sasakii; 0% in the series with wheat Gibberella zeae; 0% in the series with Alternaria solani; 25% in series [3]; 41% with Botrytis cinerea; 12% in the series with Physalospora piricola. The inhibition at 50 µg/mL in the series on Rhizoctonia cerealis is 7%; in the series on Cercospora arachidicola it was 24%; in the series with Sclerotinia sclerotiorum it was 24%. The pest or weed control at 100 µg/mL in [1] is 10%; in [2], over 30%; in the series with Ostrinia furnacalis, 5%; in the series on Caenorhabditis elegans, 17%. Further, in the series on Tobacco Mosaic Virus, the “TMV inactivation (anti-TMV activity)” value came out at 29%. Further, the “Death rate after 48 h (%)” value in [4] (dosage 9.57 μg a.i./bee) is given as 5.0%; in series [4] (dosage 10.9 μg a.i./bee) it was 0%. For the same molecule, the “Death number after 24 h” value in [4] (dosage 9.57 μg a.i./bee) and in series [4] (dosage 10.9 μg a.i./bee) was 0 each time. In addition, the “Death number after 48 h” value was 0 and 1 in series [4] (dosage 9.57 μg a.i./bee); 0 in series [4] (dosage 10.9 μg a.i./bee).
`C=CC[C@@H]1C[C@]2(O)C[C@H](O[C@]34CCO[C@@]35CC=CC[C@H]5[C@H](CC=C)C4)O[C@@]23CC=CC[C@H]13` [Zyj07-30-1]: the “fungicidal activity (growth inhibition rate), PS” value in the series with Pellicularia sasakii is listed as 22%. Besides, the “fungicidal activity (growth inhibition rate), GZ” value with wheat Gibberella zeae (50 μg/mL) is on record as 0%. In addition, the “fungicidal activity (growth inhibition rate), AS” value in the series on Alternaria solani is on record as 14%. Also, the pest or weed control at 100 µg/mL (in [1]; in [2]; in the series on Ostrinia furnacalis) was 0% throughout. Moreover, the inhibition at 50 µg/mL is 21% in [3] and 0% in the series with Rhizoctonia cerealis. Moreover, the “fungicidal activity (growth inhibition rate), BC” value with Botrytis cinerea is listed as 5%. The “fungicidal activity (growth inhibition rate), PP” value in the series with Physalospora piricola is 83%. Besides, the “insecticidal activity, Caenorhabditis elegans” value in the series on Caenorhabditis elegans is 5%. Besides, in the series with Cercospora arachidicola, the “fungicidal activity (growth inhibition rate), CA” value worked out at 41%. Moreover, the “TMV inactivation (anti-TMV activity)” value with Tobacco Mosaic Virus is reported as 8%. Also, in the series on Sclerotinia sclerotiorum, the “fungicidal activity (growth inhibition rate), SS” value turned out to be 95%. Also, the results for the “Death rate after 48 h (%)” value in series [4] (dosage 5.12 μg a.i./bee) and in [4] (dosage 10.6 μg a.i./bee) were 0% and 5.0%, respectively. The “Death number after 24 h” value in series [4] (dosage 5.12 μg a.i./bee) and in [4] (dosage 10.6 μg a.i./bee) was 0 throughout. For the same molecule, the “Death number after 48 h” value in [4] (dosage 5.12 μg a.i./bee) is 0; in series [4] (dosage 10.6 μg a.i./bee) it was 0 and 1.
Turning to `C=CC[C@@H]1C[C@]2(O)CCO[C@@]23C[C@@H]2O[C@@H]2C[C@H]13` [Zyj07-31-1], the inhibition at 50 µg/mL in the series on Pellicularia sasakii was 0%; in the series with wheat Gibberella zeae, 7%; in the series with Alternaria solani it was 14%; in [3], 15%; with Botrytis cinerea, 36%; with Physalospora piricola it was over 50%. Besides, the inhibition at 50 µg/mL with Rhizoctonia cerealis worked out at 7%; with Cercospora arachidicola it was 41%; with Sclerotinia sclerotiorum, 0%. Moreover, the pest or weed control at 100 µg/mL in series [1] was determined as 0%; in series [2] it was 0%; in the series on Ostrinia furnacalis, 0%; in the series with Caenorhabditis elegans, 18%. Further, the “TMV inactivation (anti-TMV activity)” value with Tobacco Mosaic Virus came to 11%.
On to `C=CC[C@@H]1C[C@]2(O)CCO[C@@]23CC[C@H](O)C[C@H]13` [Zyj07-33], for which the inhibition at 50 µg/mL in the series with Pellicularia sasakii is 27%; in the series on wheat Gibberella zeae, 27%; with Alternaria solani it was 24%; in [3], 16%; in the series on Botrytis cinerea, over 50%; with Physalospora piricola, over 50%. Also, the figures for the inhibition at 50 µg/mL in the series on Rhizoctonia cerealis, with Cercospora arachidicola and in the series on Sclerotinia sclerotiorum were 41%, 46% and 31%, respectively. In addition, the pest or weed control at 100 µg/mL in [1] is 15%; in [2], over 30%; with Ostrinia furnacalis, 10%; with Caenorhabditis elegans, 27%. In the series with Tobacco Mosaic Virus, the “TMV inactivation (anti-TMV activity)” value is 9%.
